# Source: ChEMBL document CHEMBL5724696, “Autophagy assay results for EUbOPEN Chemogenomics Library” (2024)
# Tests used:
# U2OS [1] = experiment: (§1) Here: values are normalized to the negative (DMSO; defined as 0% autophagy induction) and positive (250nM Torin1; mTOR inhibitor; defined as maximal inducer of autophagy = 100%) control compounds and represented as % of autophagy induction. […] The impact of autophagy induction on cells is complex and depends on the affected target. As such, the magnitude of a phenotype may not be equally mirrored in the %-value of autophagy induction and vice versa. The dynamics of the induction may indicate the mode of activation: e.g. activation via phosphorylation or a signaling cascade may occur fast, while activation via transcription factors may take considerably longer. […] Of note, treatment concentrations may be sub-optimal for specific compounds, leading to false negative annotations.; assay type: functional, Homo sapiens; conditions: Culturing Media DMEM, 1 % Penicillin/Streptomycin, 10% Fetal bovin serum Add-On: No, Screening Media Control DMEM, Screening Media Samples DMEM
# U2OS [2] = experiment: as §1; assay type: functional, Homo sapiens; conditions: Culturing Media DMEM, 1 % Penicillin/Streptomycin, 10% Fetal bovin serum Add-On: No, Screening Media Control DMEM, Screening Media Samples DMEM; remark: listed apart in the source
# [3] = Compound Concentration 0.5 uM, Timepoint 12 hours
# [4] = Compound Concentration 0.5 uM, Timepoint 24 hours
# [5] = Compound Concentration 0.5 uM, Timepoint 36 hours
# [6] = Compound Concentration 0.5 uM, Timepoint 60 hours
# [7] = Compound Concentration 2 uM, Timepoint 12 hours
# [8] = Compound Concentration 2 uM, Timepoint 24 hours
# [9] = Compound Concentration 2 uM, Timepoint 36 hours
# [10] = Compound Concentration 2 uM, Timepoint 60 hours
# [11] = Compound Concentration 10 uM, Timepoint 12 hours
# [12] = Compound Concentration 10 uM, Timepoint 24 hours
# [13] = Compound Concentration 10 uM, Timepoint 36 hours
# [14] = Compound Concentration 10 uM, Timepoint 60 hours
smiles,measurement,setting,value
N[C@H](C(=O)O)c1ccc(C(=O)O)c(C(=O)O)c1,autophagy induction,U2OS [1]; [3],-6.378%
same,autophagy induction,U2OS [1]; [4],-5.676%
same,autophagy induction,U2OS [1]; [5],-3.938%
same,autophagy induction,U2OS [1]; [6],114.48%
same,autophagy induction,U2OS [1]; [7],4.454%
same,autophagy induction,U2OS [1]; [8],-1.856%
same,autophagy induction,U2OS [1]; [9],-1.714%
same,autophagy induction,U2OS [1]; [10],114.31%
same,autophagy induction,U2OS [1]; [11],50.3971%
same,autophagy induction,U2OS [1]; [12],15.7905%
same,autophagy induction,U2OS [1]; [13],7.703%
same,autophagy induction,U2OS [1]; [14],113.866%
same,autophagy induction,U2OS [2]; [3],-5.827%
same,autophagy induction,U2OS [2]; [4],-6.791%
same,autophagy induction,U2OS [2]; [5],-11.2953%
same,autophagy induction,U2OS [2]; [6],-15.497%
same,autophagy induction,U2OS [2]; [7],2.006%
same,autophagy induction,U2OS [2]; [8],-3.7569%
same,autophagy induction,U2OS [2]; [9],0.8793%
same,autophagy induction,U2OS [2]; [10],2.43%
same,autophagy induction,U2OS [2]; [11],-6.462%
same,autophagy induction,U2OS [2]; [12],-8.325%
same,autophagy induction,U2OS [2]; [13],-2.853%
same,autophagy induction,U2OS [2]; [14],-1.815%
O=C(O)COc1cccc(CN(Cc2ccc(-n3cccn3)cc2)S(=O)(=O)c2cccnc2)c1,autophagy induction,U2OS [1]; [3],1.733%
same,autophagy induction,U2OS [1]; [4],-2.792%
same,autophagy induction,U2OS [1]; [5],-2.001%
same,autophagy induction,U2OS [1]; [6],114.184%
same,autophagy induction,U2OS [1]; [7],12.9626%
same,autophagy induction,U2OS [1]; [8],0.7228%
same,autophagy induction,U2OS [1]; [9],0.396%
same,autophagy induction,U2OS [1]; [10],114.202%
same,autophagy induction,U2OS [1]; [11],2.661%
same,autophagy induction,U2OS [1]; [12],-2.358%
same,autophagy induction,U2OS [1]; [13],0.08453%
same,autophagy induction,U2OS [1]; [14],114.175%
same,autophagy induction,U2OS [2]; [3],5.874%
same,autophagy induction,U2OS [2]; [4],2.74%
same,autophagy induction,U2OS [2]; [5],1.495%
same,autophagy induction,U2OS [2]; [6],-1.697%
same,autophagy induction,U2OS [2]; [7],-11.5162%
same,autophagy induction,U2OS [2]; [8],-13.8805%
same,autophagy induction,U2OS [2]; [9],-8.014%
same,autophagy induction,U2OS [2]; [10],-12.1859%
same,autophagy induction,U2OS [2]; [11],-5.999%
same,autophagy induction,U2OS [2]; [12],-5.085%
same,autophagy induction,U2OS [2]; [13],-8.443%
same,autophagy induction,U2OS [2]; [14],1.395%
Cc1csc2c(N[C@@H](C)CN3CCN(S(=O)(=O)c4ccc(Cl)c(Cl)c4)CC3)ncnc12,autophagy induction,U2OS [1]; [3],-0.007707%
same,autophagy induction,U2OS [1]; [4],-1.5%
same,autophagy induction,U2OS [1]; [5],-0.4844%
same,autophagy induction,U2OS [1]; [6],-654.702%
same,autophagy induction,U2OS [1]; [7],4.101%
same,autophagy induction,U2OS [1]; [8],0.5386%
same,autophagy induction,U2OS [1]; [9],-0.3647%
same,autophagy induction,U2OS [1]; [10],114.139%
same,autophagy induction,U2OS [1]; [11],-10.3141%
same,autophagy induction,U2OS [1]; [12],-6.4207%
same,autophagy induction,U2OS [1]; [13],-4.537%
same,autophagy induction,U2OS [1]; [14],114.595%
same,autophagy induction,U2OS [2]; [3],6.768%
same,autophagy induction,U2OS [2]; [4],8.8628%
same,autophagy induction,U2OS [2]; [5],13.6009%
same,autophagy induction,U2OS [2]; [6],4.711%
same,autophagy induction,U2OS [2]; [7],2.53%
same,autophagy induction,U2OS [2]; [8],6.7674%
same,autophagy induction,U2OS [2]; [9],12.0314%
same,autophagy induction,U2OS [2]; [10],11.989%
same,autophagy induction,U2OS [2]; [11],12.5309%
same,autophagy induction,U2OS [2]; [12],16.4077%
same,autophagy induction,U2OS [2]; [13],26.9308%
same,autophagy induction,U2OS [2]; [14],28.2658%
CC(C)Oc1ccccc1C(=O)Nc1ccccc1C(=O)Nc1cccc(S(=O)(=O)C(F)(F)F)c1,autophagy induction,U2OS [1]; [3],3.012%
same,autophagy induction,U2OS [1]; [4],-1.737%
same,autophagy induction,U2OS [1]; [5],-1.42%
same,autophagy induction,U2OS [1]; [6],114.268%
same,autophagy induction,U2OS [1]; [7],8.776%
same,autophagy induction,U2OS [1]; [8],3.511%
same,autophagy induction,U2OS [1]; [9],2.272%
same,autophagy induction,U2OS [1]; [10],113.873%
same,autophagy induction,U2OS [1]; [11],-16.0939%
same,autophagy induction,U2OS [1]; [12],-18.3481%
same,autophagy induction,U2OS [1]; [13],-11.2669%
same,autophagy induction,U2OS [1]; [14],115.068%
same,autophagy induction,U2OS [2]; [3],-12.7089%
same,autophagy induction,U2OS [2]; [4],-12.2172%
same,autophagy induction,U2OS [2]; [5],-12.6004%
same,autophagy induction,U2OS [2]; [6],-17.6606%
same,autophagy induction,U2OS [2]; [7],2.367%
same,autophagy induction,U2OS [2]; [8],0.4504%
same,autophagy induction,U2OS [2]; [9],-2.457%
same,autophagy induction,U2OS [2]; [10],-5.945%
same,autophagy induction,U2OS [2]; [11],11.8819%
same,autophagy induction,U2OS [2]; [12],14.0193%
same,autophagy induction,U2OS [2]; [13],13.5851%
same,autophagy induction,U2OS [2]; [14],17.9189%
